Columns and labels:
[1] = system: Calu-6 subcutaneous xenografts; experiment: subcutaneous Calu-6 xenograft with tumor-localized irradiation; type: in vivo, mouse; conditions: for mean tumor volume: NU5455 30 mg/kg oral single dose 30 min before 3.3 Gy
Method: Subcutaneous non–small cell lung cancer xenografts were generated in CD-1 nude or BALB/c nude mice using A549 and Calu-6 cells, respectively, as previously described ([53]). When tumors reached 100 mm^3, mice were randomized into 4 groups (n = 7–9 per group) to receive (a) vehicle (orally) 30 minutes before mock radiation, (b) NU5455 (30 mg/kg orally) 30 minutes before mock radiation, (c) targeted tumor radiation at a single dose of 3.3 or 10 Gy, or (d) NU5455 (30 mg/kg orally) 30 minutes before 3.3 Gy or 10 Gy targeted tumor radiation. For targeted irradiation of subcutaneous tumors, anesthetized mice were restrained in a lead-shielded container with only the tumor exposed, and x-ray radiation applied using an RS320 irradiation system (Gulmay Medical) at a dose rate of 1.82 Gy/min.
Establishment of subcutaneous NSCLC xenograft models
NSCLC subcutaneous xenografts were generated as previously described ( 53). Briefly, 6-8 week-old female BALB/c nude or CD-1 nude mice (Charles River Laboratories) were anaesthetized with 2% isoflurane (Zoetis), and 5 x 10^6 Calu-6 or A549 cells in 50% Matrigel (BD Biosciences), respectively, were subcutaneously injected into a single site on the back of the mouse. Mouse weights and tumor volumes (1/2 x length x width x depth) were measured three times a week.
Targeted radiotherapy in subcutaneous and orthotopic NSCLC xenograft models When subcutaneous xenografts reached 100 mm3, mice were randomized into four groups (n = 7 - 11/group): (i) N-Methyl-2-pyrrolidone (NMP): 30% Encapsin : PEG400 (1:6:3 v/v/v) vehicle p.o. 30 minutes prior to mock radiation. (ii) NU5455 (30 mg/kg p.o.) 30 minutes prior to mock radiation. (iii) Targeted tumor radiation at a single dose of 3.3 or 10 Gy. (iv) NU5455 (30 mg/kg p.o.) 30 minutes prior to 3.3 Gy or 10 Gy targeted tumor radiation. For targeted irradiation of subcutaneous tumors, anaesthetized mice were restrained in a lead -shielded container with only the tumor exposed. X -ray radiation was applied using an RS320 irradiation system ( Gulmay Medical) at a dose rate of 1.82 Gy/minute. Three animals from each group were humanely killed at 5 and/or 24 hours after irradiation, and the tumors processed for immunohistochemistry (IHC). […]
Immunohistochemistry in lung tumor xenografts and normal lung tissue
Tissues were fixed in 4% paraformaldehyde (PFA) and paraffin -embedded. Sections were stained using primary antibodies against γH2AX (JBW301, 1:1000, Millipore #05-636), 53BP1 (1:500, Cell Signaling #4937), and cleaved caspase 3 (CC3, 1:600, Cell Signaling #9661) and the EnVision G2 Doublestain System (Dako #K5361), according to the manufacturer’s instructions. One tissue section from each of 3 mice per group was examined, and the whole

A549 cells = experiment: γH2AX and 53BP1 foci after 10 Gy; type: cell-based, human; conditions: 5 μM, 5 hours after irradiation
Method: (§1) Cell line γH2AX and 53BP1 foci immunofluorescence and quantitation
(§2) Cells grown on coverslips or in 96-well plates were treated with 1 or 5 µM NU5455 or DMSO 1 hour prior to irradiation (0, 2.5 or 10 Gy) using an RS 320 X-ray Research System (Gulmay Medical). At set timepoints (15 or 30 minutes, or 1, 4, 5, 6, or 24 hours post-irradiation), cells were washed and fixed in methanol or 3% paraformaldehyde (PFA). Cells were blocked and permeabilized in 1% (v/v) goat serum/1% (w/v) BSA/0.1% (v/v) Triton X100 or 0.1% (v/v) Triton X100 containing 10% (w/v) dried milk powder and 2% (w/v) bovine serum albumin, followed by incubation with antibodies against γH2AX (JBW301, Millipore #05-636) and/or 53BP1 (Cell Signaling #4937). Cells were then washed and incubated with Alexa Fluor 488 goat anti-mouse and/or Alexa Fluor 568 goat anti -rabbit antibodies (A11001 or A11011 respectively, Invitrogen). In A549 and Calu-6, cells were Hoechst stained (5 µg/ml), and the average numbers of γH2AX and 53BP1 foci per cell were quantified from 400 nuclei per sample using an In Cell analyzer 1000 (GE Healthcare). For MCF7 cells, coverslips were mounted using Vectashield mounting medium with DAPI (Vector Labs) and imaged using a Leica TCS SPE confocal fluorescence microscope. Total fluorescence intensity was determined using ImagePro Plus 5.0 software (Media Cybernetics).
(§3) Clonogenic survival assays […]

Calu-6 cells = experiment: γH2AX and 53BP1 foci after 10 Gy; type: cell-based, human; conditions: 5 μM, 5 hours after irradiation
Method: as §1, §2, §3

MCF7 cells = experiment: clonogenic survival with 2 Gy IR, DNA repair inhibitors; type: cell-based, Human; conditions: 1 h before and 24 h after IR
Method: Cells were washed in phosphate-buffered saline (PBS), trypsinized and counted. Cells were then reseeded at a known density in drug-free medium into 10 cm dishes (100 - 10 000 cells/dish) and incubated for 8-21 days. Colonies were fixed using Carnoys fixture (75% v/v methanol, 25% v/v acetic acid, Fisher), stained with crystal violet (0.4% w/v in water), and counted using a ColCount automated colony counter (Oxford Optronics). Cell survival was calculated as a percentage of the untreated control.
Alternatively, exponentially growing MCF7 cells were exposed to a range of concentrations of the PARP inhibitor rucaparib, the ATM inhibitor KU55933, the ATR inhibitor VE-821 or NU5455 for 1 hour prior to irradiation with 2 Gy. Cells were then incubated in the continued presence of the DNA repair inhibitors for a further 24 hours prior to replating. […]

CN(C(=O)CN1CCOCC1)c1ccc2sc3c(-c4cccc5c(=O)cc(N6CC7CCC(C6)O7)oc45)cccc3c2c1 [NU5455]
adverse effect or impact on body weight ([1]; NU5455 30 mg/kg oral + 10 Gy): without any adverse effect or impact on body weight
antitumor response ([1]; NU5455 30 mg/kg oral + 10 Gy): regression of Calu-6 tumors was induced
mean tumor volume ([1]; day 0): 104 mm^3
mean tumor volume ([1]; day 6): 102 mm^3
mice having no evidence of tumor at the end of the experiment ([1]; day 38, NU5455 30 mg/kg oral + 10 Gy): 3 of 6
radiation-induced γH2AX foci remaining, fold greater with concomitant NU5455 ([1]; tumor, 5 hours after 3.3 Gy, 30 mg/kg oral): 3.0 fold
number of colocalized γH2AX and 53BP1 foci (A549 cells): significant increase
number of colocalized γH2AX and 53BP1 foci (Calu-6 cells): significant increase
SER (sensitization enhancement ratio), enhancement of 2 Gy IR clonogenic cell killing (MCF7 cells; at 1 μM): 11.5 fold
SER (sensitization enhancement ratio), enhancement of 2 Gy IR clonogenic cell killing (MCF7 cells; at 3 μM): 38 fold
